Test results reported in publication PMC7582476, “Discovery of Novel Indoleamine 2,3-Dioxygenase 1 (IDO1) and Histone Deacetylase 1 (HDAC1) Dual Inhibitors Derived from the Natural Product Saprorthoquinone” (Molecules, 2020).
Read-outs that look alike come from different tables or passages of the source.

Columns and labels:
IDO1 = molecular target: T1, IDO1 (Homo sapiens, UniProt P14902); assay: IDO1 enzymatic assay; assay type: biochemical; conditions: for IC50: mean ± SD of at least two independent assays
T1 construct: No. 20160706
T1 sequence (P14902 whole entry): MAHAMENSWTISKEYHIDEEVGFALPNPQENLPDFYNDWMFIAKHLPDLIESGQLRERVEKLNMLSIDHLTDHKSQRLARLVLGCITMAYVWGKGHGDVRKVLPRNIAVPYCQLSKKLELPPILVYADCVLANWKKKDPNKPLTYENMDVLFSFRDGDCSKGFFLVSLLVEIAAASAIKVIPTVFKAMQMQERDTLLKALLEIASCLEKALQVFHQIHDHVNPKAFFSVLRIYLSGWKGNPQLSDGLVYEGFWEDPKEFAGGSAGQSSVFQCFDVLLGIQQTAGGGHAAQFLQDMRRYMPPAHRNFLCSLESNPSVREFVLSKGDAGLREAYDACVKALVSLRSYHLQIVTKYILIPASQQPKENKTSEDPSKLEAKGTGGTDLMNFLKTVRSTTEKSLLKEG
Protocol: (1) Prepare 100× compound of the final desired highest inhibitor concentration in reaction by 100% DMSO. For example, if compounds test at 10 μM, then prepare 1 mM of compound solution in this step. Then dilute compound with DMSO in 3-fold mode to obtain different concentrations. Mark as source plate. (2) Add 100 μL of 100% DMSO to column 1 and column 12 for background control and no compound high control respectively.
Transfer 2 μL of each well from the 96-well source plate to a 96-well assay plate.
• (3) Enzyme Reaction • Prepare 2× enzyme solution. Add IDO-1 in assay buffer. • Prepare 2× substrate solution. Add L-tryptophan, ascorbate, methylene blue, catalase in the assay buffer. • Assay plate already contains 2 μL of compound in 100% DMSO. • Transfer 2× enzyme solution to the assay plate. Add 100 μL of 2× enzyme solution to each well of the 96-well assay plate. • Incubate at room temperature for 10 min. • Transfer […] to each well of the 96-well assay plate. • Read OD321 kinetically by Spectramax (Molecular Devices, LLC, San Jose, CA, USA). • (4) Curve Fitting • Copy data from Spectramax program. Percent inhibition = (max-conversion)/(max − min) × 100. “max” stands for high control; “min” stands for low control. • Fit the data in XL-Fit to obtain IC50 values. Equation used is: Y = Bottom + (Top − Bottom)/(1 + 10^((LogIC50 − X) × Hill Slope)

A549 cell line = assay: Anti-proliferation assay in A549 cell line (CellTiter-Glo); assay type: cell-based; conditions: Homo sapiens; A549 cells, 48 h, CTG assay
Protocol: Cell viability was measured by the CellTiter-Glo Luminescent (CTG) assay. A549 cells (ATCC, Cat. No.CCL-185) were seeded (2000 cells/well) in 96-well plates and cells were left to incubate at 37 °C for 24 h. After 24 h, prepare compounds with 5-fold dilution in DMSO to the compound plate (200-fold of the final concentration) and transfer 5 μL from the compound plate to 95 μL intermediate medium in the intermediate plate (10-fold of the final concentration). Then transfer 10 μL from the intermediate plate to the cell plates. The final DMSO is 0.5%. After continuing to incubate for 48 h, add 50 μL CTG reagent to each well and read luminescence according to CTG product manual.

HDAC1 = molecular target: T2, HDAC1 (Homo sapiens, UniProt Q13547); assay: HDAC enzymatic assay; assay type: biochemical; conditions: mean ± SD of at least two independent assays
T2 construct: purchased BPS Bioscience Inc. 50051
T2 sequence (Q13547 whole entry): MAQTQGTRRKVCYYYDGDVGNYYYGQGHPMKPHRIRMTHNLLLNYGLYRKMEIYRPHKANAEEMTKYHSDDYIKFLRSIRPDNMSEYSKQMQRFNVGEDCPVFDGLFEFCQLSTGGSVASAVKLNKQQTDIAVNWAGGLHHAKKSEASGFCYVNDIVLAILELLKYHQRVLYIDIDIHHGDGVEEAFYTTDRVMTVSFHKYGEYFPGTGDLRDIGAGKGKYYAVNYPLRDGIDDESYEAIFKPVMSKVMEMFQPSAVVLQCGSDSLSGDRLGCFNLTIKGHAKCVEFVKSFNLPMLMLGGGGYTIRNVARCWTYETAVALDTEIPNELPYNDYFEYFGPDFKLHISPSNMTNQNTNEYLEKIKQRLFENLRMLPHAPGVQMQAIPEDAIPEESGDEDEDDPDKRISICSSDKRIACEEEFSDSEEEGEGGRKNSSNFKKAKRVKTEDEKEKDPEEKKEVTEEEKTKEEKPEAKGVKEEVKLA
Protocol: • (1) Prepare 1× assay buffer (modified Tris Buffer). • (2) Compound serial dilution: Transfer compounds to assay plate by Echo in 100% DMSO. The final fraction of DMSO is 1%. • (3) Prepare enzyme solution in 1× assay buffer. • (4) Add trypsin and Ac-peptide substrate in 1× assay buffer to make the substrate solution. • (5) Transfer 15 μL of enzyme solution to assay plate or for low control transfer 15 μL of 1× assay buffer. • (6) Incubate at room temperature for 15 min. • (7) Add 10 μL of substrate solution to each well to start reaction. • (8) Incubate at room temperature for 60 min. • (9) Read the plate on Synergy MX with excitation at 355 nm and emission at 460 nm. • (10) Curve fitting: Fit the data in Excel to obtain inhibition values using Equation (1).
Inh% = (Max − Signal)/(Max − Min) × 100(1)
Fit the data in XL-Fit to obtain IC50 values using Equation (2); Y = Bottom + (Top − Bottom)/(1 + 10^((LogIC50 − X) × Hill Slope))(2)
Y is %inhibition and X is compound concentration.

[1] = 10 μM, Table 1 natural products, read-out: IDO1 Inhibition @ 10 μM (%)
[2] = 10 μM, Tables 2 and 3, read-out: IDO1 % Inhibition at 10 μM (converted)
[3] = 10 μM, Table 1 natural products

Structure (SMILES) | inhibition at 10 µM (IDO1; [1]) [%] | inhibition at 10 µM (IDO1; [2]) [%] | IC50 (A549 cell line) [µM] | further results
CC(C)=CCCc1c(C)ccc2c1C(=O)C(=O)C(C(C)C)=C2 [Compound 1, saprorthoquinone] | 85 | 85 | 9.97 | IC50 (IDO1): 1.76 ± 0.27 µM
Cc1coc2c1C(=O)C(=O)c1c-2ccc2c(C)cccc12 [Compound 4] | 65 | – | – | –
CC(C)C1=Cc2ccc3c(c2C(=O)C1=O)CCCC3(C)C [Compound 5] | – | – | – | inhibition at 10 µM (IDO1; read-out: IDO1 Inhibition @ 10 μM (%)): 81%
CC1COC2=C1C(=O)C(=O)c1c2ccc2c1CCCC2(C)C (centres unmarked) [Compound 6] | 66 | – | – | –
Cc1ccc2c(c1CCC(=O)C(C)C)C(=O)C(=O)C(C(C)C)=C2 [Compound 7] | 86 | – | – | –
Cc1ccc2c(c1C(=O)CCC(C)(C)O)C(=O)C(=O)C(C(C)C)=C2 [Compound 8] | 73 | – | – | –
COC(=O)[C@@]1(C)CCCc2c1ccc1c2C(=O)C(=O)C2=C1OCC2C (some centres unmarked) [Compound 9] | 61 | – | – | –
CC(C)C1=C(O)C(=O)C2=C(CC[C@H]3C(C)(C)CCC[C@]23C)C1=O [Compound 10] | 2 | – | – | IDO1 Inhibition @ 10 μM (%) (IDO1; [3]): almost lost their activity
Cc1ccc2c(c1CCCC(C)(C)O)C(=O)C(O)=C(C(C)C)C2=O [Compound 11] | 2 | – | – | IDO1 Inhibition @ 10 μM (%) (IDO1; [3]): almost lost their activity
Cc1cccc2c3c(ccc12)C(=O)C(C(C)C)=C(O)C3=O [Compound 12] | 13 | – | – | –
CC(C)C1=CC(=O)C([C@@]2(C)CCCC(C)(C)[C@@H]2CC=O)=CC1=O [Compound 13] | 6 | – | – | –
CC(C)=CCCc1c(C)ccc2c1C(=O)C(O)=C(C(C)C)C2=O [Compound 14] | 30 | – | – | –
CC(C)C1=C(O)C(=O)C23OC2(C(=O)CC2C(C)(C)CCCC23C)C1=O (centres unmarked) [Compound 15] | 3 | – | – | IDO1 Inhibition @ 10 μM (%) (IDO1; [3]): almost lost their activity
Cc1ccc2c(c1/C=C\C(=O)C(C)(C)O)C(=O)C(O)=C(C(C)C)C2=O [Compound 16] | 3 | – | – | IDO1 Inhibition @ 10 μM (%) (IDO1; [3]): almost lost their activity
Cc1ccc2c(c1CCC(O)C(C)(C)O)C(=O)C(=O)C(C(C)C)=C2 (centres unmarked) [Compound 17, 8-(3,4-Dihydroxy-4-methylpentyl)-3-isopropyl-7-methylnaphthalene-1,2-dione] | – | 90 | 12.8 | IC50 (IDO1): 0.74 ± 0.15 µM
Cc1ccc2c(c1CCC(=O)O)C(=O)C(=O)C(C(C)C)=C2 [Compound 18, 3-(6-Isopropyl-2-methyl-7,8-dioxo-7,8-dihydronaphthalen-1-yl)propanoic acid] | – | 86 | > 20 | IC50 (IDO1): 0.99 ± 0.24 µM

Structure (SMILES) | inhibition at 10 µM (IDO1; [1]) [%] | inhibition at 10 µM (IDO1; [2]) [%] | IC50 (A549 cell line) [µM] | further results
Cc1ccc2c(c1CCC(N)=O)C(=O)C(=O)C(C(C)C)=C2 [Compound 19, 3-(6-Isopropyl-2-methyl-7,8-dioxo-7,8-dihydro-naphthalen-1-yl)propanamide] | – | 78 | 14.5 | IC50 (IDO1): 0.51 ± 0.04 µM
Cc1ccc2c(c1CCC(=O)Nc1cccc(F)c1)C(=O)C(=O)C(C(C)C)=C2 [Compound 21a, N-(3-Fluorophenyl)-3-(6-isopropyl-2-methyl-7,8-dioxo-7,8-dihydronaphthalen-1-yl)propanamide] | – | 80 | 13.1 | IC50 (IDO1): 1.33 ± 0.01 µM
Cc1ccc2c(c1CCC(=O)Nc1ccc(F)cc1)C(=O)C(=O)C(C(C)C)=C2 [Compound 21b, N-(4-Fluorophenyl)-3-(6-isopropyl-2-methyl-7,8-dioxo-7,8-dihydronaphthalen-1-yl)propanamide] | – | 64 | 14.8 | –
Cc1ccc2c(c1CCC(=O)Nc1ccc(C(F)(F)F)cc1)C(=O)C(=O)C(C(C)C)=C2 [Compound 21c, 3-(6-Isopropyl-2-methyl-7,8-dioxo-7,8-dihydronaphthalen-1-yl)-N-(4-(trifluoromethyl)phenyl)propanamide] | – | 64 | 7.49 | –
Cc1ccc2c(c1CCC(=O)Nc1ccc(F)c(Br)c1)C(=O)C(=O)C(C(C)C)=C2 [Compound 21d, N-(3-Bromo-4-fluorophenyl)-3-(6-isopropyl-2-methyl-7,8-dioxo-7,8-dihydronaphthalen-1-yl)propanamide] | – | 65 | 9.31 | –
COc1ccc(NC(=O)CCc2c(C)ccc3c2C(=O)C(=O)C(C(C)C)=C3)cc1 [Compound 21e, 3-(6-Isopropyl-2-methyl-7,8-dioxo-7,8-dihydronaphthalen-1-yl)-N-(4-methoxyphenyl)propanamide] | – | 66 | > 20 | –
Cc1ccc2c(c1CCC(=O)NCc1c[nH]c3ccccc13)C(=O)C(=O)C(C(C)C)=C2 [Compound 21f, N-((1H-indol-3-yl)methyl)-3-(6-isopropyl-2-methyl-7,8-dioxo-7,8-dihydronaphthalen-1-yl)propanamide] | – | 79 | > 20 | –
Cc1ccc2c(c1CCC(=O)NCc1cn(C)c3ccccc13)C(=O)C(=O)C(C(C)C)=C2 [Compound 21g, 3-(6-Isopropyl-2-methyl-7,8-dioxo-7,8-dihydronaphthalen-1-yl)-N-((1-methyl-1H-indol-3-yl)methyl)-propanamide] | – | 74 | 12.2 | –
Cc1ccc2c(c1CCCOS(C)(=O)=O)C(=O)C(=O)C(C(C)C)=C2 [Compound 24a, 3-(6-Isopropyl-2-methyl-7,8-dioxo-7,8-dihydronaphthalen-1-yl)propyl methanesulfonate] | – | 91 | 11.8 | IC50 (IDO1): 0.72 ± 0.13 µM
CCS(=O)(=O)OCCCc1c(C)ccc2c1C(=O)C(=O)C(C(C)C)=C2 [Compound 24b, 3-(6-Isopropyl-2-methyl-7,8-dioxo-7,8-dihydronaphthalen-1-yl)propyl ethanesulfonate] | – | 87 | 15.5 | –
Cc1ccc2c(c1CCCOS(N)(=O)=O)C(=O)C(=O)C(C(C)C)=C2 [Compound 24c, 3-(6-Isopropyl-2-methyl-7,8-dioxo-7,8-dihydronaphthalen-1-yl)propyl sulfamate] | – | 86 | 11.1 | –
Cc1ccc2c(c1CCC(=O)Nc1ccccc1N)C(=O)C(=O)C(C(C)C)=C2 [Compound 27a, N-(2-Aminophenyl)-3-(6-isopropyl-2-methyl-7,8-dioxo-7,8-dihydronaphthalen-1-yl)propanamide] | – | 88 | 17.8 | IC50 (IDO1): 0.72 ± 0.1 µM; IC50 (HDAC1): > 100 µM
Cc1ccc2c(c1CCC(=O)Nc1cc(F)ccc1N)C(=O)C(=O)C(C(C)C)=C2 [Compound 27b, N-(2-Amino-5-fluorophenyl)-3-(6-isopropyl-2-methyl-7,8-dioxo-7,8-dihydronaphthalen-1-yl)propanamide] | – | 84 | 9.51 | IC50 (HDAC1): > 100 µM
Cc1ccc2c(c1CCC(=O)Nc1ccc(F)cc1N)C(=O)C(=O)C(C(C)C)=C2 [Compound 27c, N-(2-amino-4-fluorophenyl)-3-(6-isopropyl-2-methyl-7,8-dioxo-7,8-dihydronaphthalen-1-yl)propanamide] | – | 56 | > 20 | IC50 (HDAC1): > 100 µM
Cc1ccc2c(c1CCC(=O)NCCC(=O)Nc1ccccc1N)C(=O)C(=O)C(C(C)C)=C2 [Compound 33a, N-(2-aminophenyl)-3-(3-(6-isopropyl-2-methyl-7,8-dioxo-7,8-dihydronaphthalen-1-yl)propanamido)-propanamide] | – | 89 | > 20 | IC50 (HDAC1): > 100 µM
